Source: patent US20120035069A1, “PROGNOSIS OF BREAST CANCER PATIENTS BY MONITORING THE EXPRESSION OF TWO GENES” (priority 2009, published 2012)

What was measured:
[1] = tested on: MDA-MB-231 cells; experiment: Matrigel invasion (evasion) assay; type: cell-based, human; conditions: SB431542 5 μM; control MDA-MB-231 cells embedded in a drop of Matrigel
Description: (C) Assay for invasive activity of MDA-MB-231 cells embedded in a drop of matrigel. Panels show pictures of the same field at different time points. Dotted is lines highlight the edges of the drop. Only control cells are able to evade from the Matrigel® (arrows). This process is dependent on TGFβ signaling as it is blocked by treatment with the TGFβR1 inhibitor SB431542 (5 μM). MDA shp53 cells are impaired in matrix degradation and evasion.
For matrigel invasion assay shown in FIG. 2C, MDA-MB-231 and derivative cell lines were resuspended in drops ([…]) of Matrigel Growth Factor Reduced (BD Biosciences), diluted 1:2 in DMEM/F12.

[2] = tested on: MDA-MB-231 cells; experiment: Transwell migration assay; type: cell-based, human; conditions: control MDA-MB-231 cells; TGFβ1 5 ng/ml
Description: Transwell migration assay were performed in 24 well PET inserts (Falcon […] pore size) for migration assays. For MDA-MB-231, cells were plated in 10 cm dishes, transfected with siRNA and, after 8 hours, serum starved overnight. Then, 50000 or 100000 cells were plated in transwell inserts (at least 3 replicas for each sample) and either left untreated or treated with TGFβ1 (5 ng/ml). For H1299, cells is were plated in the transwell in 10% serum but then changed to 0.2% serum. For both cell lines, cells in the upper part of the transwells were removed with a cotton swab; migrated cells were fixed in PFA 4% and stained with Crystal Violet 0.5%. Filters were photographed and the total number of cells counted. Every experiment was repeated at least 3 times independently.

Compound | evasion of cells from the Matrigel drop (TGFβ-dependent invasive activity) [1] | migration through transwell in response to TGFβ [2]
NC(=O)c1ccc(-c2nc(-c3ccc4c(c3)OCO4)c(-c3ccccn3)[nH]2)cc1 [SB431542] | blocked | 
TGFβ: TGFβ provided from Peprotech, used to treat cells |  | potent promigratory response
